Assay results published in patent publication US8450354B2, “Substituted imidazo[1,2-b]pyridazine derivatives, pharmaceutical compositions, and methods of use as β-secretase inhibitors” (High Point Pharmaceuticals, LLC, priority 2010, dated 2013).

What was measured:
[1] = Aβ Cell Based Assay (Aβ1-40 secretion, ELISA); set-up: species or system human; conditions: Homo sapiens, HEK293; HEK-APPwt cells, 6 hours incubation, reduction of Aβ1-40 secretion; asterisk = mean
Method: Aβ Cell Based Assay Procedure
In the following assay, the proteolytic activity of BACE in cells exposed to varying concentrations of a compound of interest is measured by observing the amount of Aβ1-40 secreted from HEK293 cells (Human Embryonic Kidney epithelial cell line) stably expressing wildtype human APP695 protein (HEK-APPwt cells).
HEK-APPwt cells were grown in high glucose DMEM (Dulbecco's Modified Eagles Medium SIGMA Cat. #D5796) supplemented with 25 mM HEPES (4-(2-hydroxyethyl)-1-piperazineethanesulfonic acid) (pH 7.4) (Invitrogen Cat. #15630-114), 0.1 mM NEAA (Non-essential Amino Acids) (BioWhittaker Cat. #13-114E), 10% fetal bovine serum (SIGMA Cat. #F4135) and 250 μg/mL hygromycin (Invitrogen Cat. #10687-010) in T-225 flasks at 37° C. with 5% CO2 and humidity control.
Test compounds were initially prepared in DMSO and diluted with DMEM media containing 2% FBS (Fetal bovine serum). Ten standard compound solutions were prepared having a range of concentrations. The standard compound solutions were used to determine the EC50 of the test compound. The range of concentrations chosen may depend on the compound's predicted potency.
To prepare cells for the assay, a flask containing HEK-APPwt cells were trypsinized briefly (1 mL trypsin), and once the cells detached, 4 mL of 10% FBS-DMEM was added to the flask. The detached cells were centrifuged at 900 rpm for 5 min to form a pellet.
The HEK-APPwt cell pellet was re-suspended with 10 mL DMEM media containing 2% FBS. 80 μL of the cell suspension was added to each well of a 96-well cell culture plate to give 100×10^4 cells/ml. 10 μL of a standard compound solution was added to each well of the 96-well cell culture plate followed by 10 μL of Alamar blue solution. The cells were incubated at 37° C. in a 5% CO2 incubator for 6 hours.
At the end of the incubation, the plates were removed from incubator, and the supernatant was collected. Aβ1-40 concentration in the medium was measured by using a commercial Aβ1-X ELISA kit (IBL, Japan Cat. #27729). Briefly, the ELISA plates were coated with an anti-human Aβ (N)(82E1) mouse IgG monoclonal antibody. A horseradish peroxidase conjugated anti-human Aβ11-28 mouse IgG monoclonal antibody was used for detection. The cell culture supernatant was diluted with EIA buffer+protease inhibitors (kit buffer containing protease inhibitors (1 mL PI/30 mL buffer)). A 100 μL aliquot of the diluted supernatant was added to each well of the ELISA plate and incubated for 6 hrs at 4° C. The ELISA plate was washed 8 times with phosphate buffered saline (PBS) containing 0.05% TWEEN 20.
A 100 μL of detection antibody was then added and incubated for 1 hour at 4° C. The plate was washed 8 times with PBS buffer containing 0.05% Tween 20 followed by addition of 100 μL of the chromogen tetramethylbenzidine (TMB). The plate was incubated in the dark at room temperature for about 30 min and a stop solution (1N H2SO4) was added.
The intensity of the color developed was measured at 450 nm. The optical density at 450 nm (OD450) is proportional to the concentration of human Aβ1-40 secreted by the cell. As a reference, N—[N-(3,5-difluorophenacetyl-L-alanyl)]—S-phenylglycine t-butyl ester (DAPT, a γ-secretase inhibitor) was used to indicate 100% inhibition of […]. Thus, the assay measures the ability of a compound of interest to reduce Aβ1-40 secretion. Compound potency is reported in Table 3 as the EC50 by calculating the percent inhibition at all concentration levels and the data were fit with non-linear curve fitting algorithm using GraphPad Prism.

BACE-1 enzyme = target: T1, BACE-1 enzyme (Homo sapiens, UniProt P56817); experiment: BACE Fluorescence Resonance Energy Transfer (FRET) Assay; assay type: biochemical; conditions: pH 4-4.5, 30 min pre-incubation, about 1.5 hours reaction, asterisk = mean
T1 construct: purchased R & D Systems 931AS
Method: BACE Fluorescence Resonance Energy Transfer (FRET) Assay
In the following assay, the proteolytic activity of BACE is measured by observing cleavage of a fluorescent group from a peptide substrate containing a rhodamine fluorescent donor and a quenching acceptor.
The inhibitory activity of compounds of Formula (I) may be compared to a statine derived control inhibitor STA200 (MP Biomedical Cat. #STA-200). The cleavage reaction occurs when a BACE-1 substrate (Invitrogen, Cat. #P2986) was added to a reaction mixture containing BACE-1 enzyme (R & D Systems, Cat. #931AS) and allowed to proceed for about 1.5 hours. Fluorescence, used as a marker of BACE activity, is monitored using 540 nm excitation and 585 nm emission wavelengths (Envision, Perkin Elmer).
A typical assay reaction contains BACE-1 enzyme-in assay buffer (50 mM sodium acetate, pH 4-4.5, 0.01% CHAPS (3-[(3-Cholamidopropyl)dimethylammonio]-1-propanesulfonate), 0.0125% TritonX-100, 0.006% EDTA) which is pre-incubated for 30 minutes with test compound in 7.5% DMSO. The reaction is initiated with the addition of BACE-1 substrate in assay buffer and allowed to proceed for about 1.5 hours at room temperature. Assays are conducted in black 384-well microtiter plates and scanned at room temperature using 540 nm excitation and 585 nm emission wavelengths.
In some instances, the percent inhibition at a given concentration is reported instead of the IC50.

T1 sequence (P56817 46-457 limits assumed): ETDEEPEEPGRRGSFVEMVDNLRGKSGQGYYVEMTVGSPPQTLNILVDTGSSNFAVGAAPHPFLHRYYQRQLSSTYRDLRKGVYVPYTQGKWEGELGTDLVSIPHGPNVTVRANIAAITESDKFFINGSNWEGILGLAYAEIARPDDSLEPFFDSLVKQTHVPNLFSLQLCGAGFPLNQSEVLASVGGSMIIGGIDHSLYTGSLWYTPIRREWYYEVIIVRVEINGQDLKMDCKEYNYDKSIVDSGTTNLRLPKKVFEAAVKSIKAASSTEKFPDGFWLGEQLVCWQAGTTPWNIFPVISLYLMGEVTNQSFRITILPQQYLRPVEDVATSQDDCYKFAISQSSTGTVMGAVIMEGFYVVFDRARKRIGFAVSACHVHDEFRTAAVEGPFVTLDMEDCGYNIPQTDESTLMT

Compound | EC50 [1] | IC50 (BACE-1 enzyme)
O=C(Nc1nc2cc(-c3cccc(OC(F)(F)F)c3)ccc2[nH]1)c1cn2nc(OCCN3CCOCC3)ccc2n1 [Example 32] | 0.59 µM | 0.234 µM
O=C(Nc1nc2cc(-c3cc(F)cc(Cl)c3)ccc2[nH]1)c1cn2nc(OCCN3CCOCC3)ccc2n1 [Example 50] | 0.58 µM | 0.267 µM
CN(C)CCN(C)CCOc1ccc2nc(C(=O)Nc3nc4cc(-c5cc(F)cc(Cl)c5)ccc4[nH]3)cn2n1 [Example 49] | 1.8 µM | 0.21 µM
COc1ccc2nc(C(=O)Nc3nc4cc(-c5cc(F)cc(Cl)c5)ccc4[nH]3)cn2n1 [Example 7] | 0.7 µM | 0.225 µM
O=C(Nc1nc2cc(-c3cccc(C(F)(F)F)c3)ccc2[nH]1)c1cn2nc(OCCN3CCOCC3)ccc2n1 [Example 27, 6-(2-Morpholin-4-yl-ethoxy)-imidazol[1,2-b]pyridazine-2-carboxylic acid [5-(3-trifluoromethyl-phenyl)-1H-benzoimidazol-2-yl]-amide] | 0.58 µM | 0.262 µM
C[C@H](C[C@@H](C)O)Oc1ccc2nc(C(=O)Nc3nc4cc(-c5cccc(C(F)(F)F)c5)ccc4[nH]3)cn2n1 [Example 120, 6-((1R,3R)-3-hydroxy-1-methyl-butoxy)-imidazo[1,2-b]pyridazine-2-carboxylic acid [5-(3-trifluoromethyl-phenyl)-1H-benzoimidazol-2-yl]-amide] | 0.07 µM | 0.455 µM
CN(C)CCN(C)CCOc1ccc2nc(C(=O)Nc3nc4cc(-c5cccc(C(F)(F)F)c5)ccc4[nH]3)cn2n1 [Example 43] | 2.88 µM | 0.335 µM
O=C(Nc1nc2cc(-c3cc(F)cc(Cl)c3)ccc2[nH]1)c1cn2nc(OCCN3CCCC3=O)ccc2n1 [Example 54] | 0.87 µM | 0.211 µM
O=C(Nc1nc2cc(-c3cccc(OC(F)(F)F)c3)ccc2[nH]1)c1cn2nc(OCCN3CCCC3=O)ccc2n1 [Example 31] | 2.5 µM | 0.313 µM
O=C(Nc1nc2cc(-c3cccc(C(F)(F)F)c3)ccc2[nH]1)c1cn2nc(OCCN3CCNC3=O)ccc2n1 [Example 26] | 1.41 µM | 0.222 µM
O=C(Nc1nc2cc(-c3cc(F)cc(Cl)c3)ccc2[nH]1)c1cn2nc(OCCN3CCCCCC3)ccc2n1 [Example 53] | 2.62 µM | 0.216 µM
O=C(Nc1nc2cc(-c3cccc(C(F)(F)F)c3)ccc2[nH]1)c1cn2nc(OCCN3CCCCCC3)ccc2n1 [Example 40] | 2.68 µM | 0.307 µM
O=C(Nc1nc2cc(-c3cccc(C(F)(F)F)c3)ccc2[nH]1)c1cn2nc(OCCN3CCCC3=O)ccc2n1 [Example 25] | 1.35 µM | 0.316 µM
O=C(Nc1nc2cc(-c3cccc(OC(F)(F)F)c3)ccc2[nH]1)c1cn2nc(OCCN3CCCCC3)ccc2n1 [Example 47] | 1.96 µM | 0.24 µM
O=C(Nc1nc2cc(-c3cccc(C(F)(F)F)c3)ccc2[nH]1)c1cn2nc(OCCn3cncn3)ccc2n1 [Example 45] | 1.31 µM | 0.198 µM

Results, then the molecule that gave them:

EC50 [1] | IC50 (BACE-1 enzyme) | Compound
0.77 µM | 0.298 µM | C[C@H](O)CCOc1ccc2nc(C(=O)Nc3nc4cc(-c5cc(F)cc(Cl)c5)ccc4[nH]3)cn2n1 [Example 119]
1.09 µM | 0.15 µM | C[C@H](O)COc1ccc2nc(C(=O)Nc3nc4cc(-c5cccc(OC(F)(F)F)c5)ccc4[nH]3)cn2n1 [Example 145, 6-((S)-2-hydroxy-propoxy)-imidazo[1,2-b]pyridazine-2-carboxylic acid [5-(3-trifluoromethoxy-phenyl)-1H-benzoimidazol-2-yl]-amide]
0.89 µM | 0.357 µM | CC(C)[C@H](O)COc1ccc2nc(C(=O)Nc3nc4cc(-c5cc(F)cc(Cl)c5)ccc4[nH]3)cn2n1 [Example 108]
1.06 µM | 0.318 µM | C[C@@H](O)CCOc1ccc2nc(C(=O)Nc3nc4cc(-c5cc(F)cc(Cl)c5)ccc4[nH]3)cn2n1 [Example 118]
1.27 µM | 0.064 µM | CC[C@@H](O)COc1ccc2nc(C(=O)Nc3nc4cc(-c5cc(F)cc(Cl)c5)ccc4[nH]3)cn2n1 [Example 105]
0.11 µM | 0.376 µM | C[C@@H](O)[C@@H](C)Oc1ccc2nc(C(=O)Nc3nc4cc(-c5cc(F)cc(Cl)c5)ccc4[nH]3)cn2n1 [Example 146, 6-((1R,2R)-2-hydroxy-1-methyl-propoxy)-imidazo[1,2-b]pyridazine-2-carboxylic acid [5-(3-chloro-5-fluoro-phenyl)-1H-benzoimidazol-2-yl]-amide]
0.27 µM | 0.207 µM | O=C(Nc1nc2cc(-c3cc(F)cc(Cl)c3)ccc2[nH]1)c1cn2nc(OC[C@@H]3CCCO3)ccc2n1 [Example 147, 6-[(S)-1-(Tetrahydro-furan-2-yl)methoxy]-imidazol[1,2-b]pyridazine-2-carboxylic acid [5-(3-chloro-5-fluoro-phenyl)-1H-benzoimidazol-2-yl]-amide]
0.78 µM | 0.189 µM | C[C@H](O)[C@@H](C)Oc1ccc2nc(C(=O)Nc3nc4cc(-c5cccc(C(F)(F)F)c5)ccc4[nH]3)cn2n1 [Example 99]
0.75 µM | 0.203 µM | O=C(Nc1nc2cc(-c3cccc(OC(F)(F)F)c3)ccc2[nH]1)c1cn2nc(OC[C@H]3CC[C@@H](CO)O3)ccc2n1 [Example 134]
0.48 µM | 0.251 µM | CC(C)(O)COc1ccc2nc(C(=O)Nc3nc4cc(-c5cccc(OC(F)(F)F)c5)ccc4[nH]3)cn2n1 [Example 112]
0.15 µM | 0.245 µM | O=C(Nc1nc2cc(-c3ccc(F)c(Cl)c3)ccc2[nH]1)c1cn2nc(OCCO)ccc2n1 [Example 131, 6-(2-Hydroxy-ethoxy)-imidazo[1,2-b]pyridazine-2-carboxylic acid [5-(3-chloro-4-fluoro-phenyl)-1H-benzoimidazol-2-yl]-amide]
0.1 µM | 0.371 µM | C[C@@H](O)COc1ccc2nc(C(=O)Nc3nc4cc(-c5ccc(C(F)(F)F)c(Cl)c5)ccc4[nH]3)cn2n1 [Example 122, 6-((R)-2-hydroxy-propoxy)-imidazol[1,2-b]pyridazine-2-carboxylic acid [5-(3-chloro-4-trifluoromethyl-phenyl)-1H-benzoimidazol-2-yl]-amide]
0.79 µM | 0.215 µM | CC(C)[C@@H](O)COc1ccc2nc(C(=O)Nc3nc4cc(-c5cc(F)cc(Cl)c5)ccc4[nH]3)cn2n1 [Example 107]
1.17 µM | 0.136 µM | C[C@H](O)[C@H](C)Oc1ccc2nc(C(=O)Nc3nc4cc(-c5cccc(C(F)(F)F)c5)ccc4[nH]3)cn2n1 [Example 101]
